{"source": "paper PMC2363984", "about": "(British Journal of Cancer, 2001)", "key": {"[1]": {"conditions": "in vitro, 1994, cited from earlier work"}, "clinical [2]": {"assay": "clinical", "conditions": "female, human, in vivo, ip"}, "clinical [3]": {"assay": "clinical", "conditions": "female, human, in vivo, ip, 20 mg/m2, Cmax"}, "recurrent ovarian cancer": {"system": "recurrent ovarian cancer", "assay": "Tumour responses to IP topotecan", "type": "in vivo, human"}, "[4]": {"assay": "Phase I toxicity of IP topotecan (WHO grading)"}, "[5]": {"conditions": "cited from earlier work"}, "[6]": {"system": "human tumor colony forming units", "design": "method as in Burris et al, 1992", "conditions": "in vitro; ref Burris et al, 1992; cited from earlier work"}, "[7]": {"conditions": "female, human, in vivo"}, "DNA topoisomerase I": {"system": "DNA topoisomerase I", "design": "method as in Kingsbury et al, 1991", "conditions": "in vitro; ref Kingsbury et al, 1991; cited from earlier work"}, "ovarian cancer": {"system": "ovarian cancer", "design": "method as in earlier work", "conditions": "patients who failed platinum based chemotherapy; ref Neijt et al, 1991; Kudelka et al, 1996; Ten Bokkel Huinink et al, 1997; cited from earlier work"}, "[8]": {"conditions": "cited from earlier work", "remark": "listed apart in the source"}, "[9]": {"conditions": "in vivo"}, "[10]": {"conditions": "human, in vivo, ip; for MRT / T1/2: female"}, "[11]": {"design": "method as in Rowinsky et al, 1992; Verweij et al, 1993; Herben et al, 1996", "conditions": "ref Rowinsky et al, 1992, Verweij et al, 1993, Herben et al, 1996, cited from earlier work"}}, "note": "Where two headings read alike, the source gives them in different places.", "data": [{"smiles": "CC[C@@]1(O)C(=O)OCc2c1cc1n(c2=O)Cc2cc3c(CN(C)C)c(O)ccc3nc2-1", "note": "[topotecan, Topotecan]", "values": [{"measurement": "Cytotoxic concentrations", "setting": "[1]; ref Pizao et al", "result": "13.7 to 229", "unit": "µg/L"}, {"measurement": "Cytotoxic concentration", "setting": "[1]; ref Tanizawa et al", "result": 128, "unit": "µg/L"}, {"measurement": "AUC", "setting": "clinical [2]; 5 mg/m2, AUC", "result": 81, "unit": "ng·h/mL"}, {"measurement": "MRT", "setting": "clinical [2]; 5 mg/m2, MRT", "result": 7, "unit": "h"}, {"measurement": "half-life", "setting": "clinical [2]; 5 mg/m2, T1/2", "result": 4.6, "unit": "h"}, {"measurement": "AUC", "setting": "clinical [2]; 10 mg/m2, AUC", "result": 107, "unit": "ng·h/mL"}, {"measurement": "Cmax", "setting": "clinical [2]; 10 mg/m2, Cmax", "result": 14, "unit": "ng/mL"}, {"measurement": "MRT", "setting": "clinical [2]; 10 mg/m2, MRT", "result": 6.5, "unit": "h"}, {"measurement": "half-life", "setting": "clinical [2]; 10 mg/m2, T1/2", "result": 3.9, "unit": "h"}, {"measurement": "Tmax", "setting": "clinical [2]; 10 mg/m2, Tmax", "result": 1.7, "unit": "h"}, {"measurement": "Tmax", "setting": "clinical [2]; 15 mg/m2, Tmax", "result": 1.6, "unit": "h"}, {"measurement": "MRT", "setting": "clinical [2]; 20 mg/m2, MRT", "result": 8.1, "unit": "h"}, {"measurement": "half-life", "setting": "clinical [2]; 20 mg/m2, T1/2", "result": 4.4, "unit": "h"}, {"measurement": "Tmax", "setting": "clinical [2]; 20 mg/m2, Tmax", "result": 3, "unit": "h"}, {"measurement": "Cmax", "setting": "clinical [2]; 30 mg/m2, Cmax", "result": 145, "unit": "ng/mL"}, {"measurement": "Tmax", "setting": "clinical [2]; 30 mg/m2, Tmax", "result": 1.8, "unit": "h"}, {"measurement": "half-life", "setting": "clinical [2]; T1/2", "result": 5.2, "unit": "h"}, {"measurement": "half-life", "setting": "clinical [2]; T1/2 of lactone in this study (discussion)", "result": 5.5, "unit": "h"}, {"measurement": "Tmax", "setting": "clinical [2]; Tmax (time to peak plasma level after start of IP administration)", "result": 2.1, "unit": "h"}, {"measurement": "Cmax", "setting": "clinical [3]", "result": 12100, "unit": "ng/mL"}, {"measurement": "Partial responses (> 50% decrease in repeated CA125 levels)", "setting": "recurrent ovarian cancer; biochemically evaluable patients", "result": "6 of 13"}, {"measurement": "Stable disease for 6-8 cycles", "setting": "recurrent ovarian cancer; clinically evaluable patients", "result": "5 of 8"}, {"measurement": "Complete clinical responses", "setting": "recurrent ovarian cancer; pretreated patients, IP 5-30 mg/m2", "result": "no complete clinical responses"}, {"measurement": "Patients with progressive disease", "setting": "recurrent ovarian cancer; three by marker and three by clinical parameters", "result": "six"}, {"measurement": "Maximum tolerated dose (MTD)", "setting": "[4]", "result": 20, "unit": "mg/m2"}, {"measurement": "Recommended dosage", "setting": "[5]; continuous 24-h IP infusion, ref Plaxe et al, 1998", "result": 3, "unit": "mg/m2"}, {"measurement": "Dose limiting toxicity in most studies", "setting": "[5]; ref Abbruzzese et al, 1993, Kantarjian et al, Rowinsky et al, 1994, Van Warmerdam et al, 1995, Hochster et al", "result": "neutropenia"}, {"measurement": "Threshold concentration for cytotoxic activity, continuous exposure", "setting": "[6]", "result": 100, "unit": "µg/L"}, {"measurement": "Tmax (time to peak plasma level after start of IP administration)", "setting": "[7]", "result": "2.7 ± 1.1", "unit": "h"}, {"measurement": "Dose level from which plasma concentrations required for cytotoxicity in vitro were reached", "setting": "[7]; ip", "result": "≥ 15", "unit": "mg/m2"}, {"measurement": "T1/2", "setting": "[7]; ip", "result": "3.7 ± 1.3", "unit": "h"}, {"measurement": "MRT", "setting": "[7]; ip, 20 mg/m2", "result": 6.9, "unit": "h"}, {"measurement": "Inhibition of DNA topoisomerase I", "setting": "DNA topoisomerase I", "result": "potent inhibitor"}, {"measurement": "Duration of response", "setting": "ovarian cancer", "result": "22-32 weeks"}, {"measurement": "Vss for lactone", "setting": "[8]; IV administration, ref Herben et al", "result": 94, "unit": "L/m2"}, {"measurement": "Terminal T1/2 for peritoneal topotecan", "setting": "[8]; continuous IP infusion, ref Plaxe et al, 1998", "result": 2.7, "unit": "h"}, {"measurement": "Patients with nausea and/or vomiting grade I-II", "setting": "[9]; female, human", "result": 12, "unit": "patients"}, {"measurement": "Platelets toxicity Grade III, worst haematologic toxicity (number)", "setting": "[9]; female, human, 74 cycles", "result": 2}, {"measurement": "Platelets toxicity Grade IV, worst haematologic toxicity (number)", "setting": "[9]; female, human, 74 cycles", "result": 0}, {"measurement": "WBC toxicity Grade III, worst haematologic toxicity (number)", "setting": "[9]; female, human, 74 cycles", "result": 5}, {"measurement": "WBC toxicity Grade IV, worst haematologic toxicity (number)", "setting": "[9]; female, human, 74 cycles", "result": 1}, {"measurement": "Duration of myelosuppression", "setting": "[9]; female, human, ip", "result": "< 7", "unit": "days"}, {"measurement": "Recommended dose for further phase II trials", "setting": "[9]; female, human, ip", "result": 20, "unit": "mg/m2"}, {"measurement": "Bleeding episodes", "setting": "[9]", "result": "No bleeding episodes"}, {"measurement": "Patients with abdominal pain grade I", "setting": "[9]", "result": "six"}, {"measurement": "Patients with nausea and vomiting grade III", "setting": "[9]", "result": "three"}, {"measurement": "Dose limiting toxicity (DLT)", "setting": "[9]; ip", "result": "acute hypotension, chills and fever"}, {"measurement": "Patients with generalized transient skin rash", "setting": "[9]; ip", "result": "four"}, {"measurement": "MRT", "setting": "[10]; 10 mg/m2", "result": 2.6, "unit": "h"}, {"measurement": "T1/2", "setting": "[10]; 10 mg/m2", "result": 1.8, "unit": "h"}, {"measurement": "MRT", "setting": "[10]; 30 mg/m2", "result": 3.4, "unit": "h"}, {"measurement": "T1/2", "setting": "[10]; 30 mg/m2", "result": 2.3, "unit": "h"}, {"measurement": "CL", "setting": "[10]", "result": 0.8, "unit": "L/h/m2"}, {"measurement": "Form at equilibrium", "setting": "[11]; pH 7.4", "result": "open-ring form predominates"}, {"measurement": "Stability in infusion fluids", "setting": "[11]; pH < 4.0", "result": "stable"}, {"measurement": "Stability in plasma", "setting": "[11]; plasma", "result": "unstable"}]}]}
